# From patent publication US20220281841A1, “ETHYNYLHETEROCYCLES AS RHO-ASSOCIATED COILED-COIL KINASE (ROCK) INHIBITORS” (Angion Biomedica Corp., priority 2019, published 2022)
# Read-outs that look alike come from different tables or passages of the source.
# Tests used:
# [1] = target: T1, ROCK1 (Homo sapiens, UniProt Q13464); test: ROCK1 kinase binding affinity, DiscoverX KINOMEscan KdELECT; conditions: equilibrium dissociation constant, 11-point 3-fold dilution series
# T1 construct: purchased DiscoverX (KINOMEscan KdELECT service); host or cells: E. coli BL21-derived (T7 phage) or HEK-293
# T1 sequence (Q13464 whole entry): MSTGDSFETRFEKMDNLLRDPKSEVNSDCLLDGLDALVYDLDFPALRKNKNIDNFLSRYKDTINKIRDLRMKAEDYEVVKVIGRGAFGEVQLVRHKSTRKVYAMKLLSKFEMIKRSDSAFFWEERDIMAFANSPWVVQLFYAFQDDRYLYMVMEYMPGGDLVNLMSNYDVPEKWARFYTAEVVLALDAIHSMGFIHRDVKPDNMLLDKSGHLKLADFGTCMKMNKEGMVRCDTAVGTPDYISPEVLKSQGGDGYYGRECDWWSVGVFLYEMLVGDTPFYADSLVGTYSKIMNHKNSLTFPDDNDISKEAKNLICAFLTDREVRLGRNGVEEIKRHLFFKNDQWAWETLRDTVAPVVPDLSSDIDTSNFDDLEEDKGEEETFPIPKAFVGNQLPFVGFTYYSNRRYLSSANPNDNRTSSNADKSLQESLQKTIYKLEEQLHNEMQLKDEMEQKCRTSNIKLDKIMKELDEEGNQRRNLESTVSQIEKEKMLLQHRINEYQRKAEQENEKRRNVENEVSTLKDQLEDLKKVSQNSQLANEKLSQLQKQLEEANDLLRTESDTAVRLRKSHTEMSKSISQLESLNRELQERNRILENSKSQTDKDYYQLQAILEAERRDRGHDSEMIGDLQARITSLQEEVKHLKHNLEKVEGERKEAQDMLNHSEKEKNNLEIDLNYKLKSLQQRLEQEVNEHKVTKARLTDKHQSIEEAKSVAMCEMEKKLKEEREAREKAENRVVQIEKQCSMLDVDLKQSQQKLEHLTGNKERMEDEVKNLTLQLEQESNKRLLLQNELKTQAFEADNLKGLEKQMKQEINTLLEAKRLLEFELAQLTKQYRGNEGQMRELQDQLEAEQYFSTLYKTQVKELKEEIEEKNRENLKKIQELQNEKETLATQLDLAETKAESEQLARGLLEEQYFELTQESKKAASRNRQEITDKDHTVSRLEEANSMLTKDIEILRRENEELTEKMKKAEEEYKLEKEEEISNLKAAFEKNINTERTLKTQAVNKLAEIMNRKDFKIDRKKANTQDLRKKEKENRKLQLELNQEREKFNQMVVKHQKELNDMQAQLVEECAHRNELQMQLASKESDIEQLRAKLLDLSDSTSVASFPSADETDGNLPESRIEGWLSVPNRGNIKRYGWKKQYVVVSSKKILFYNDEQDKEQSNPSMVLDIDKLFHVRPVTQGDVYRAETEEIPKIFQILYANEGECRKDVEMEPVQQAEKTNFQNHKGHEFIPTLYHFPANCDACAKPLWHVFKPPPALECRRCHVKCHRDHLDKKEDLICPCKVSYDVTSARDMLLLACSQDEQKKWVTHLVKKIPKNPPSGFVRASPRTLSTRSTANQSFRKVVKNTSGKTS
# Description: (§1) 1. ROCK1 and ROCK2 kinase assays: The ROCK1 and ROCK2 kinase binding affinities of compounds in this invention were determined by DiscoverX's KINOMEscan™ KdELECT technology (https://www.discoverx.com/kinomescan-elect-kinase-screening-and-profiling-services): Kinase-tagged T7 phage strains were prepared in an E. coli host derived from the BL21 strain. E. coli were grown to log-phase and infected with T7 phage and incubated with shaking at 32° C. until lysis. The lysates were centrifuged and filtered to remove cell debris. The remaining kinases were produced in HEK-293 cells and subsequently tagged with DNA for qPCR detection. Streptavidin-coated magnetic beads were treated with biotinylated small molecule ligands for 30 minutes at room temperature to generate affinity resins for kinase assays. The liganded beads were blocked with excess biotin and washed with blocking buffer (SeaBlock (Pierce), 1% BSA, 0.05% Tween 20, 1 mM DTT) to remove unbound ligand and to reduce nonspecific binding. […] Test compounds were prepared as 111X stocks in 100% DMSO. Kds were determined using an 11-point 3-fold compound dilution series with three DMSO control points. […] The compounds were then diluted directly into the assays such that the final concentration of DMSO was 0.9%. All reactions performed in polypropylene 384-well plate. Each was a final volume of 0.02 ml. […] The kinase concentration in the eluates was measured by qPCR.
# [2] = target: T2, ROCK2 (Homo sapiens, UniProt O75116); test: ROCK2 kinase binding affinity, DiscoverX KINOMEscan KdELECT; conditions: for ROCK 2 Selectivity: ROCK2 over ROCK1, from Kd values, N/C = not calculated
# T2 construct: purchased DiscoverX (KINOMEscan KdELECT service); host or cells: E. coli BL21-derived (T7 phage) or HEK-293
# T2 sequence (O75116 whole entry): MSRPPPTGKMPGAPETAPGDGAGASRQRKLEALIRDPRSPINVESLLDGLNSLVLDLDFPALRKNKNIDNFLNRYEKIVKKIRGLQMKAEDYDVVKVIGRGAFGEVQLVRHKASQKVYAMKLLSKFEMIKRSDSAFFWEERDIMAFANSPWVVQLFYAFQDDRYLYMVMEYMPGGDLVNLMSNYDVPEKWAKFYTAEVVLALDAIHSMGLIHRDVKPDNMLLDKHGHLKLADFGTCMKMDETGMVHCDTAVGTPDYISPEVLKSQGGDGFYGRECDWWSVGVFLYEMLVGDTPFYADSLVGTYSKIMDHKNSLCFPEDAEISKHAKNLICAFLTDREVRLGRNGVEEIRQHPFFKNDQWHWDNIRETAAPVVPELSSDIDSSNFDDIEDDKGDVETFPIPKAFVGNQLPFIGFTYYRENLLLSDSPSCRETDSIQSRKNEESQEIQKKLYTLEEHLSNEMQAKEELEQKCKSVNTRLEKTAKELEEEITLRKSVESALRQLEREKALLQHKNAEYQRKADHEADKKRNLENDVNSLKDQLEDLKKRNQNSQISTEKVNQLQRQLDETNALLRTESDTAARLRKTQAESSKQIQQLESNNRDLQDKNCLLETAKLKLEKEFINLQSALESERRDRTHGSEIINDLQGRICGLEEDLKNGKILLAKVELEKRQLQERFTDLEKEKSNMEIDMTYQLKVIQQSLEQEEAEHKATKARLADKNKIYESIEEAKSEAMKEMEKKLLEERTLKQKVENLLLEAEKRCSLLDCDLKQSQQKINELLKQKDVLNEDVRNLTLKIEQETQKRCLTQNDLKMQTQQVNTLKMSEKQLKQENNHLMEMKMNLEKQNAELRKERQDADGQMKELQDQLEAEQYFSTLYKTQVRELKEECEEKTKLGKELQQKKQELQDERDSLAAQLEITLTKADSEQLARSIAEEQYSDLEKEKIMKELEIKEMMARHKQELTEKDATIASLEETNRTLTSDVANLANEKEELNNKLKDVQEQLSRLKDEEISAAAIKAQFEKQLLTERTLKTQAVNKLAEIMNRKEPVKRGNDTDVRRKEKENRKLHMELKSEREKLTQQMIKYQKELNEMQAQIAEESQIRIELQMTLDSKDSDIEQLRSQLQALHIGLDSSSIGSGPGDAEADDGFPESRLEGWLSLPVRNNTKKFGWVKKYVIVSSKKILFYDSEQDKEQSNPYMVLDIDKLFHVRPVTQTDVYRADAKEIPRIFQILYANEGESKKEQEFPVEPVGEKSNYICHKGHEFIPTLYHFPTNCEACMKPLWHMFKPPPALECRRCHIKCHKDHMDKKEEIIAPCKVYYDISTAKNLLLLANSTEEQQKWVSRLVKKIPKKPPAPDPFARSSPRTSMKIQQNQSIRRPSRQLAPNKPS
# Description: as §1
# [3] = equilibrium dissociation constant, 11-point 3-fold dilution series, read-out: Kd (μM) ROCK2
Kd [1],"Kd [2, 3]",Compound,ROCK 2 Selectivity [2],Kd [2]
> 6 µM,0.049 µM,"Clc1cc2c(cn1)CN(c1nccc(-c3nccc(C#Cc4ccc5[nH]ncc5c4)n3)n1)C2 [Ex. 17, 5-((2′-(6-Chloro-1,3-dihydro-2H-pyrrolo[3,4-c]pyridin-2-yl)-[2,4′-bipyrimidin]-4-yl)ethynyl)-1H-indazole]",>122,–
> 30 µM,1.5 µM,"CN(C)CCOc1ccc2c(c1)CN(c1nccc(-c3cccc(C#Cc4ccc5[nH]ncc5c4)n3)n1)C2 [Ex. 22, 2-((2-(4-(6-((1H-Indazol-5-yl)ethynyl)pyridin-2-yl)pyrimidin-2-yl)isoindolin-5-yl)oxy)-N,N-dimethylethanamine]",>20,–
> 30 µM,0.66 µM,"CN1CCN(c2ccc3c(c2)CN(c2nccc(-c4cccc(C#Cc5ccc6[nH]ncc6c5)n4)n2)C3)CC1 [Ex. 23, 5-((6-(2-(5-(4-Methylpiperazin-1-yl)isoindolin-2-yl)pyrimidin-4-yl)pyridin-2-yl)ethynyl)-1H-indazole]",>45,–
> 30 µM,> 30 µM,"COc1ccc2c(c1)CN(c1nccc(-c3cc(F)cc(C#Cc4ccc5[nH]ncc5c4)c3)n1)C2 [Ex. 24, 5-((3-Fluoro-5-(2-(5-methoxyisoindolin-2-yl)pyrimidin-4-yl)phenyl)ethynyl)-1H-indazole]",–,–
> 30 µM,> 30 µM,"Fc1cc(C#Cc2ccc3[nH]ncc3c2)cc(-c2ccnc(N3Cc4ccc(F)cc4C3)n2)c1 [Ex. 25, 5-((3-Fluoro-5-(2-(5-fluoroisoindolin-2-yl)pyrimidin-4-yl)phenyl)ethynyl)-1H-indazole]",–,–
> 30 µM,4.5 µM,"Fc1cc(C#Cc2ccc3[nH]ncc3c2)cc(-c2ccnc(N3Cc4ccc(Cl)cc4C3)n2)c1 [Ex. 26, 5-((3-(2-(5-Chloroisoindolin-2-yl)pyrimidin-4-yl)-5-fluorophenyl)ethynyl)-1H-indazole]",>6.67,–
> 30 µM,> 30 µM,"Fc1cc(C#Cc2ccc3[nH]ncc3c2)cc(-c2ccnc(N3Cc4ccc(Br)cc4C3)n2)c1 [Ex. 27, 5-((3-(2-(5-Bromoisoindolin-2-yl)pyrimidin-4-yl)-5-fluorophenyl)ethynyl)-1H-indazole]",–,–
> 30 µM,> 30 µM,"CN(C)CCOc1ccc2c(c1)CN(c1nccc(-c3cc(F)cc(C#Cc4ccc5[nH]ncc5c4)c3)n1)C2 [Ex. 28, 2-((2-(4-(3-((1H-Indazol-5-yl)ethynyl)-5-fluorophenyl)pyrimidin-2-yl)isoindolin-5-yl)oxy)-N,N-dimethylethanamine]",–,–
> 30 µM,> 30 µM,"CN1CCN(c2ccc3c(c2)CN(c2nccc(-c4cc(F)cc(C#Cc5ccc6[nH]ncc6c5)c4)n2)C3)CC1 [Ex. 29, 5-((3-Fluoro-5-(2-(5-(4-methylpiperazin-1-yl)isoindolin-2-yl)pyrimidin-4-yl)phenyl)ethynyl)-1H-indazole]",–,–

# The next lines start with the molecule.
Compound,Kd [1],"Kd [2, 3]",ROCK 2 Selectivity [2],Kd [2]
"COc1ccc2c(c1)CN(c1nccc(-c3nccc(C#Cc4ccncc4)n3)n1)C2 [Ex. 1, 5-Methoxy-2-(4-(pyridin-4-ylethynyl)-[2,4′-bipyrimidin]-2′-yl)isoindoline]",> 30 µM,> 30 µM,–,–
"COc1ccc2c(c1)CN(c1nccc(-c3nccc(C#Cc4cn[nH]c4)n3)n1)C2 [Ex. 2, 2-(4-((1H-Pyrazol-4-yl)ethynyl)-[2,4′-bipyrimidin]-2′-yl)-5-methoxyisoindoline]",> 30 µM,> 30 µM,–,–
"COc1ccc2c(c1)CN(c1nccc(-c3nccc(C#Cc4ccc5[nH]ncc5c4)n3)n1)C2 [Ex. 3, 5-((2′-(5-Methoxyisoindolin-2-yl)-[2,4′-bipyrimidin]-4-yl)ethynyl)-1H-indazole]",0.82 µM,0.0069 µM,119,–
"COc1ccc2c(c1)CN(c1nccc(-c3nccc(C#Cc4ccc5c(N)nccc5c4)n3)n1)C2 [Ex. 4, 6-((2′-(5-Methoxyisoindolin-2-yl)-[2,4′-bipyrimidin]-4-yl)ethynyl)isoquinolin-1-amine]",> 30 µM,8.2 µM,>3.66,–
"COc1ccc2c(c1)CN(c1nccc(-c3nccc(C#Cc4ccc5[nH]nc(F)c5c4)n3)n1)C2 [Ex. 5, 3-Fluoro-5-((2′-(5-methoxyisoindolin-2-yl)-[2,4′-bipyrimidin]-4-yl)ethynyl)-1H-indazole]",> 30 µM,0.02 µM,>1500,–
"COc1ccc2c(c1)CN(c1nccc(-c3nccc(C#Cc4cc(F)c5[nH]ncc5c4)n3)n1)C2 [Ex. 6, 7-Fluoro-5-((2′-(5-methoxyisoindolin-2-yl)-[2,4′-bipyrimidin]-4-yl)ethynyl)-1H-indazole]",29 µM,0.012 µM,2417,–
"COc1ccc2c(c1)CN(c1nccc(-c3nccc(C#Cc4ccc5c(c4)CNC5=O)n3)n1)C2 [Ex. 7, 5-((2′-(5-Methoxyisoindolin-2-yl)-[2,4′-bipyrimidin]-4-yl)ethynyl)isoindolin-1-one]",> 30 µM,> 30 µM,–,–
"COC(=O)c1ccc(C#Cc2ccnc(-c3ccnc(N4Cc5ccc(OC)cc5C4)n3)n2)cc1 [Ex. 8, Methyl 4-((2′-(5-methoxyisoindolin-2-yl)-[2,4′-bipyrimidin]-4-yl)ethynyl)benzoate]",> 30 µM,> 30 µM,–,–
"COc1ccc2c(c1)CN(c1nccc(-c3nccc(C#Cc4ccc(C#N)cc4)n3)n1)C2 [Ex. 9, 4-((2′-(5-Methoxyisoindolin-2-yl)-[2,4′-bipyrimidin]-4-yl)ethynyl)benzonitrile]",> 30 µM,> 30 µM,–,–
"COc1ccc2c(c1)CN(c1nccc(-c3nccc(C#Cc4ccc(C(=O)O)cc4)n3)n1)C2 [Ex. 10, 4-((2′-(5-Methoxyisoindolin-2-yl)-[2,4′-bipyrimidin]-4-yl)ethynyl)benzoic acid]",> 30 µM,> 30 µM,–,–
"CNC(=O)c1ccc(C#Cc2ccnc(-c3ccnc(N4Cc5ccc(OC)cc5C4)n3)n2)cc1 [Ex. 11, 4-((2′-(5-Methoxyisoindolin-2-yl)-[2,4′-bipyrimidin]-4-yl)ethynyl)-N-methylbenzamide]",> 30 µM,> 30 µM,–,–
"C(#Cc1ccnc(-c2ccnc(N3Cc4ccccc4C3)n2)n1)c1ccc2[nH]ncc2c1 [Ex. 12, 5-((2′-(Isoindolin-2-yl)-[2,4′-bipyrimidin]-4-yl)ethynyl)-1H-indazole]",0.25 µM,0.0018 µM,139,–
"Fc1ccc2c(c1)CN(c1nccc(-c3nccc(C#Cc4ccc5[nH]ncc5c4)n3)n1)C2 [Ex. 13, 5-((2′-(5-Fluoroisoindolin-2-yl)-[2,4′-bipyrimidin]-4-yl)ethynyl)-1H-indazole]",9.2 µM,0.0079 µM,1164,–
"Fc1ccc2c(c1)CN(c1nccc(-c3nccc(C#Cc4cc(F)c5[nH]ncc5c4)n3)n1)C2 [Ex. 14, 7-Fluoro-5-((2′-(5-fluoroisoindolin-2-yl)-[2,4′-bipyrimidin]-4-yl)ethynyl)-1H-indazole]",> 30 µM,0.028 µM,>1071,–
"COc1cc2c(cn1)CN(c1nccc(-c3nccc(C#Cc4ccc5[nH]ncc5c4)n3)n1)C2 [Ex. 15, 5-((2′-(6-Methoxy-1,3-dihydro-2H-pyrrolo[3,4-c]pyridin-2-yl)-[2,4′-bipyrimidin]-4-yl)ethynyl)-1H-indazole]",> 6 µM,0.17 µM,>35,–
"Oc1cc2c(cn1)CN(c1nccc(-c3nccc(C#Cc4ccc5[nH]ncc5c4)n3)n1)C2 [Ex. 16, 2-(4-((1H-Indazol-5-yl)ethynyl)-[2,4′-bipyrimidin]-2′-yl)-2,3-dihydro-1H-pyrrolo[3,4-c]pyridin-6-ol]",> 6 µM,0.26 µM,>23,–
"COc1ccc2c(c1)CN(c1nccc(-c3cccc(C#Cc4ccc5[nH]ncc5c4)n3)n1)C2 [Ex. 18, 5-((6-(2-(5-Methoxyisoindolin-2-yl)pyrimidin-4-yl)pyridin-2-yl)ethynyl)-1H-indazole]",25 µM,0.12 µM,–,–
"COc1ccc2c(c1)CN(c1nccc(-c3cccc(C#Cc4cc(F)c5[nH]ncc5c4)n3)n1)C2 [Ex. 19, 7-Fluoro-5-((6-(2-(5-methoxyisoindolin-2-yl)pyrimidin-4-yl)pyridin-2-yl)ethynyl)-1H-indazole]",> 30 µM,–,>10.7,2.8 µM
"Fc1ccc2c(c1)CN(c1nccc(-c3cccc(C#Cc4ccc5[nH]ncc5c4)n3)n1)C2 [Ex. 20, 5-((6-(2-(5-Fluoroisoindolin-2-yl)pyrimidin-4-yl)pyridin-2-yl)ethynyl)-1H-indazole]",> 30 µM,5.5 µM,>5.4,–
"Fc1ccc2c(c1)CN(c1nccc(-c3cccc(C#Cc4cc(F)c5[nH]ncc5c4)n3)n1)C2 [Ex. 21, 7-Fluoro-5-((6-(2-(5-fluoroisoindolin-2-yl)pyrimidin-4-yl)pyridin-2-yl)ethynyl)-1H-indazole]",> 30 µM,–,>4.4,6.8 µM
